Source: patent publication US8008491B2, “Substituted AZA-indoles as inhibitors of poly(ADP-ribose) polymerase (PARP)” (Aventis Pharmaceuticals, Inc., priority 2003, dated 2011)
Structures can show the parent of a compound that is named as a salt.

Tested on: HL-60 (human leukemia) cells
Experiment: Cell-based assay: protection from cell death induced by serum deprivation (Alamar Blue)
Settings: median effective concentration preventing cell death, HL-60, 0.1% FCS, 24 hr
Protocol: HL-60 (human leukemia) cells are grown and maintained using standard procedures in RPMI 1640+Glutamax medium supplemented with 10% fetal calf serum (FCS). For assay, cells are suspended in medium supplemented with 0.1% FCS at 0.5 million cells/mL and seeded into 96 well plates (100 μL/well). After preincubation for 3 hrs, cells are treated with compound for 1 hr, then Alamar Blue (Serotec) is added to the cells. After a further 24 hr incubation, fluorescence is measured (ex 560 nm, em 590 nm). Decrease in fluorescence compared to control cells (10 μM of a potent PARP inhibitor) is a measure of cell death. Increased fluorescence in the presence of test compound indicates protection from cell death induced by serum deprivation. For detection of polyADP-ribosylation, cells are subjected to serum deprivation in the presence and absence of compound. Cells are lysed and proteins are run on an SDS-PAGE gel. PolyADP-ribosylated proteins are detected with antibody to polyADP-ribose (Alexis or Calbiochem).
The results obtained from this study are expressed as EC50 (median effective concentration of the test compound that was effective in preventing the cell death—expressed in micromolar (μM) concentration) for each of the tested compounds and are summarized in Table 4.

SMILES	EC50
Cn1c(N2CCNCC2)c(C=O)c2ccccc21 [Example 9, 2-(Piperazin-1-yl)-1-methyl-1H-indole-3-carboxaldehyde]	8 µM
O=Cc1c(N2CCNCC2)n(-c2ccsc2)c2ccccc12 [Example 12, 2-(Piperazin-1-yl)-1-(thien-3-yl)-1H-indole-3-carboxaldehyde]	3 µM
O=Cc1c(N2CCN(CCO)CC2)n(-c2ccccc2)c2ccccc12 [Example 2, 2-[4-(2-hydroxyethyl)piperazin-1-yl]-1-phenyl-1H-indole-3-carboxaldehyde]	3.4 µM

Tested on: not given
Experiment: not given
Settings: not given

melting point	SMILES
163 to 165 °C	O=Cc1c(N2CCNCC2)n(Cc2ccccc2)c2ccccc12

Target: T1, human PARP (PARP1) (Homo sapiens, UniProt P09874)
Experiment: Radioactivity enzyme assay: incorporation of labeled NAD into acid-precipitated protein
Assay type: biochemical
Settings: reference compounds, NAD 200 μm
Source text: Full length human PARP (PARP1) is assembled from PCR fragments of a clone from a human brain cDNA library and two Incyte clones. The PARP gene (3046 bp) is sub-cloned into pFastBac-HTb vector to give PARP-pFastBac-HTh and the sequence of this clone is verified. PARP-pFastBac-HTb is expressed to obtain protein using the Bac-to-Bac expression protocol from Gibco-BRL. The recombinant virus generated is used to scale up the material for purification.
Cell pellets from cell broth of cells expressing PARP are treated with a cocktail of protease inhibitors and lysed by 4 freeze-thaw cycles. The material is suspended in 10 mM HEPES/0.1M NaCl/pH 7.2, stirred, and then centrifuged. A 40%-70% ammonium sulfate cut of protein pellet is obtained from the supernatant. The pellet is solubilized in 10 mM HEPES/pH 7.2 and centrifuged. The supernatant buffer is exchanged to 10 mM HEPES/pH 7.2/0.1M NaCl/25% glycerol by dialysis or with a desalting column. The enzyme preparation is stored at −20° C. until use.
Incorporation of radioactivity from labeled NAD into acid-precipitated protein is measured. […] After washing with TCA and ethanol, the filter is dried and counted for tritium CPM after addition of scintillation fluid.

T1 sequence (P09874 whole entry): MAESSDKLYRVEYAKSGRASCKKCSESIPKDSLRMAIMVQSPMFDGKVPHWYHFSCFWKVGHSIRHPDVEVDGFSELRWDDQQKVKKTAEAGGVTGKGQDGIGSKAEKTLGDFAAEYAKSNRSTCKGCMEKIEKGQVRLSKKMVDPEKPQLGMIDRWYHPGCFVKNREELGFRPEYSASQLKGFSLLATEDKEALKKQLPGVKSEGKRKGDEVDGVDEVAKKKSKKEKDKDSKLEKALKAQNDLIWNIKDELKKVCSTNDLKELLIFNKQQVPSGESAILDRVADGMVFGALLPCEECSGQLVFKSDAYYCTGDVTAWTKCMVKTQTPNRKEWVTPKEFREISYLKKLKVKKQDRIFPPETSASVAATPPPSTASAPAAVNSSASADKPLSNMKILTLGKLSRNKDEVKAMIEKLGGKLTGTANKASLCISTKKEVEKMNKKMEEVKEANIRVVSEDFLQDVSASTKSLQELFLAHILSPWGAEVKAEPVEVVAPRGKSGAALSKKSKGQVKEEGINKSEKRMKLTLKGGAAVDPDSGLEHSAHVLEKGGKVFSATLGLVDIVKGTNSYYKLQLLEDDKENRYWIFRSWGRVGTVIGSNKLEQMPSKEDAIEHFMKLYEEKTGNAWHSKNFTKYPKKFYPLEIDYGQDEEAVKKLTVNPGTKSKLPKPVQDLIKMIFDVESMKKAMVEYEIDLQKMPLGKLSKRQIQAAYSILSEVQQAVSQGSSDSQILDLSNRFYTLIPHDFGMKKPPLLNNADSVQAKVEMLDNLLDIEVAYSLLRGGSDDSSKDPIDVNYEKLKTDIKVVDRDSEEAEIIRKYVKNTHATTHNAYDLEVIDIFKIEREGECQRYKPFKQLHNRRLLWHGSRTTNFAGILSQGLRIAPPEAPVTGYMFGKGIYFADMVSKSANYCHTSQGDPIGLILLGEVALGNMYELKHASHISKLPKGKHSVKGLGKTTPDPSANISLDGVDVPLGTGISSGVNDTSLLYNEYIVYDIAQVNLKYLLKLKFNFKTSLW

IC50	SMILES
1 µM	Oc1cccc2c(O)nccc12 [1,5-isoquinolinediol]

Target: T1, human PARP (PARP1)
Experiment: PARP enzyme assay of Table 3 (radioactive enzyme assay or 'ELISA' enzyme assay);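 also: Baculovirus-expressed PARP1 from insect cells, activity read as tritium from labeled NAD in acid-precipitated protein, or as biotin-NAD built into plate-bound histone by absorbance at 450 nm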
Settings: IC50 (μM), fifty percent inhibitory concentration; recombinant human PARP
Protocol: The compounds of this invention are then tested with this enzyme preparation using either the radioactive enzyme assay or by the “ELISA” enzyme assay as set forth below.
Incorporation of radioactivity from labeled NAD into acid-precipitated protein is measured. The reaction mixture (volume 100 μL or 50 μL, in a test-tube or 96-well plate) contained 100 μg/mL calf thymus DNA (sonicated), 100 μg/mL histones, 100 mM Tris (pH 8.0), 1.0 mM DTT, 10 mM MgCl2, NAD (200 μm, 0.65 microcurie/mL), and varying amounts of enzyme. The reaction was incubated for 10 min at 37° C. or at room temperature for 60 min. The reaction was stopped and protein precipitated by addition of ice-cold trichloroacetic acid (TCA; 10% or 20% aqueous w/v). After brief storage in ice or at 4° C. for 2 hrs, the reaction mixture is filtered under vacuum through a glass fiber filter (2.5 cm disc, or 96-well filter plate). After washing with TCA and ethanol, the filter is dried and counted for tritium CPM after addition of scintillation fluid.
Incorporation of biotin-NAD into histone coated on plate is measured. A 96-well protein-binding EIA plate is coated with histone and blocked with bovine serum albumin. The reaction mixture (50 μL) contained DNA, buffer, enzyme, (test compound), and 250 μM of NAD and 5 μL of biotin-NAD (Trevigen). After reaction at room temperature the wells are washed and treated with Extravidin (Sigma). After incubation and washing color is developed with the peroxidase substrate TMB (Sigma). The TMB reaction is quenched with 2M sulfurric acid and the absorbance at 450 nm is read.

SMILES	IC50
O=Cc1c(N2CCNCC2)n(-c2ccc(-c3ccccc3)cc2)c2ccccc12 [Example 47, 1-(Biphenyl-4-yl)-2-piperazin-1-yl-1H-indole-3-carboxaldehyde Hydrochloride]	6.9 µM
CSc1ccc(-n2c(N3CCNCC3)c(C=O)c3ccccc32)cc1 [Example 11B-9, 2-(Piperazin-1-yl)-1-(4-thiomethylphenyl)-1H-indole-3-carboxaldehyde]	4 µM
Cn1c(N2CCNCC2)c(C=O)c2ccccc21 [Example 9, 2-(Piperazin-1-yl)-1-methyl-1H-indole-3-carboxaldehyde]	27.5 µM
CCOc1cccc(-n2c(N3CCNCC3)c(C=O)c3ccccc32)c1 [Example 58, 1-(3-Ethoxyphenyl)-2-(piperazin-1-yl)-1H-indole-3-carboxaldehyde]	0.85 µM
O=Cc1c(N2CCNCC2)n(-c2cccc3ccccc23)c2ccccc12 [Example 11B-2, 2-(Piperazin-1-yl)-1-(1-naphthyl)-1H-indole-3-carboxaldehyde]	4 µM
O=Cc1c(N2CCNCC2)n(-c2cccc(Cl)c2)c2ccccc12 [Example 55]	4.1 µM
O=Cc1c(N2CC3CC2CN3)n(-c2ccccc2)c2ccccc12 (stereo not drawn) [Example 21]	5.1 µM
O=Cc1c(N2CCSCC2)n(-c2ccccc2)c2ccccc12 [Example 1, 1-Phenyl-2-(thiomorphin-4-yl)-1H-indole-3-carboxaldehyde]	15.1 µM
CCCCc1ccc(-n2c(N3CCNCC3)c(C=O)c3ccccc32)cc1 [Example 61, 1-(4-Butylphenyl-2-(piperazin-1-yl)-1H-indole-3-carboxaldehyde Hydrochloride]	2.7 µM
COc1cccc(-n2c(N3CCNCC3)c(C=O)c3ccccc32)c1 [Example 11B-8, 2-(Piperazin-1-yl)-1-(3-methoxyphenyl)-1H-indole-3-carboxaldehyde]	5.5 µM
Cc1ccc(-n2c(N3CCNCC3)c(C=O)c3ccccc32)cc1[N+](=O)[O-] [Example 50, 1-(4-Methyl-3-nitrophenyl)-2-(piperazin-1-yl)-1H-indole-3-carboxaldehyde]	1.4 µM
O=Cc1c(N2CCNCC2)n(-c2ccsc2)c2ccccc12 [Example 12, 2-(Piperazin-1-yl)-1-(thien-3-yl)-1H-indole-3-carboxaldehyde]	2 µM
N#Cc1ccc(-n2c(N3CCNCC3)c(C=O)c3ccccc32)cc1 [Example 63, 4-[3-Formyl-2-(piperazin-1-yl)-indol-1-yl]-benzonitrile]	2.3 µM
CN(C)c1ccc(-n2c(N3CCNCC3)c(C=O)c3ccccc32)cc1 [Example 51, 1-(4-Dimethylaminophenyl)-2-piperazin-1-yl-1H-indole-3-carboxaldehyde]	26 µM
CC(C)(C)c1ccc(-n2c(N3CCNCC3)c(C=O)c3ccccc32)cc1 [Example 11B-4, 2-(Piperazin-1-yl)-1-(4-tert-butylphenyl)-1H-indole-3-carboxaldehyde]	10 µM
O=Cc1c(N2CCNCC2)n(-c2ccc(F)c(Cl)c2)c2ccccc12 [Example 11B-7, 2-(Piperazin-1-yl)-1-(3-chloro-4-fluorophenyl)-1H-indole-3-carboxaldehyde]	4 µM
O=Cc1c(N2CCNCC2)n(-c2cccc(Br)c2)c2ccccc12 [Example 49, 1-(3-Bromophenyl)-2-piperazin-1-yl-1H-indole-3-carboxaldehyde]	1.9 µM
O=Cc1c(N2CCOCC2)n(-c2ccccc2)c2ccccc12 [Example 43, 2-(Morpholin-4-yl)-1-phenyl-1H-indole-3-carboxaldehyde]	11.4 µM
O=Cc1c(N2CCNCC2)n(-c2ccc(Oc3ccccc3)cc2)c2ccccc12 [Example 52, 1(4-Phenoxyphenyl)-2-(piperazin-1-y)l-1H-indole-3-carboxaldehyde]	42.2 µM
Cc1ccc(-n2c(N3CCNCC3)c(C=O)c3ccccc32)cc1 [Example 53, 1-(4-Methylphenyl)-2-(piperazin-1-yl)-1H-indole-3-carboxaldehyde]	19.9 µM
O=Cc1c(N2CCNCC2)n(-c2ccc(F)cc2)c2ccccc12 [Example 54, 1-(4-Fluorophenyl)-2-(piperazin-1-yl)-1H-indole-3-carboxaldehyde Hydrochloride]	3.1 µM
Cc1cccc(-n2c(N3CCNCC3)c(C=O)c3ccccc32)c1 [Example 11B-11, 2-(Piperazin-1-yl)-1-(3-methylphenyl)-1H-indole-3-carboxaldehyde]	3 µM

Further lines, results first:

IC50	SMILES
43.1 µM	O=Cc1c(N2CCN(CCO)CC2)n(-c2ccccc2)c2ccccc12 [Example 41, 2-[4-(2-Hydroxethyl)piperazin-1-yl]-1-phenyl-1H-indole-3-carboxaldehyde Hydrochloride]
15.5 µM	CCc1ccc(-n2c(N3CCNCC3)c(C=O)c3ccccc32)cc1 [Example 48, 1-(4-Ethylphenyl)-2-(piperazin-1-yl)-1H-indole-3-carboxaldehyde Hydrochloride]
8.8 µM	CC(C)(C)OC(=O)NCCN1CCN(c2c(C=O)c3ccccc3n2-c2ccccc2)CC1 [Example 19]
5.1 µM	CC(C)(C)OC(=O)N1CC2CC1CN2c1c(C=O)c2ccccc2n1-c1ccccc1 (stereo not drawn) [Example 45, 5-(3-Formyl-1-phenyl-1H-indol-2yl)-2,5-diazabicyclo[2.2.1]heptane-2-carboxylic acid tert-butyl ester]
4.6 µM	O=Cc1c(N2CCN(CCO)CC2)n(-c2ccccc2)c2ccccc12 [Example 2, 2-[4-(2-hydroxyethyl)piperazin-1-yl]-1-phenyl-1H-indole-3-carboxaldehyde]
4.5 µM	COc1ccc(-n2c(N3CCNCC3)c(C=O)c3ccccc32)cc1 [Example 11B-3, 2-(Piperazin-1-yl)-1-(4-methoxyphenyl)-1H-indole-3-carboxaldehyde]
4.5 µM	O=Cc1c(N2CCCNCC2)n(-c2ccccc2)c2ccccc12 [Example 22, 2-[1,4]Diazepan-1-yl-1-phenyl-1H-indole-3-carboxaldehyde]
4 µM	O=Cc1c(N2CCNCC2)n(-c2ccc(Cl)cc2)c2ccccc12 [Example 11B-6, 2-(Piperazin-1-yl)-1-(4-chlorophenyl)-1H-indole-3-carboxaldehyde]
3 µM	O=Cc1c(N2CCNCC2)n(-c2ccc(Br)cc2)c2ccccc12 [Example 11B-5, 2-(Piperazin-1-yl)-1-(4-bromophenyl)-1H-indole-3-carboxaldehyde]
3 µM	O=Cc1c(N2CCNCC2)n(-c2cccnc2)c2ccccc12 [Example 13, 2-(Piperazin-1-yl)-1-(pyridin-3-yl)-1H-indole-3-carboxaldehyde]
2.5 µM	O=Cc1c(N2CCNCC2)n(-c2cccc([N+](=O)[O-])c2)c2ccccc12 [Example 11B-1, 2-(Piperazin-1-yl)-1-(3-nitrophenyl)-1H-indole-3-carboxaldehyde]
2.5 µM	O=Cc1c(N2CCNCC2)n(-c2cccc(F)c2)c2ccccc12 [Example 11B-10, 2-(Piperazin-1-yl)-1-(3-fluorophenyl)-1H-indole-3-carboxaldehyde]
1.5 µM	C=Cc1ccc(-n2c(N3CCNCC3)c(C=O)c3ccccc32)cc1 [Example 56, 2-(Piperazin-1-yl)-1-(4-vinylphenyl)-1H-indole-3-carboxaldehyde]
1.4 µM	O=Cc1c(N2CCNCC2)n(-c2cccc(CO)c2)c2ccccc12 [Example 57, 1-(3-Hydroxymethylphenyl)-2-(piperazin-1-yl)-1H-indole-3-carboxaldehyde]
0.99 µM	CC(=O)Nc1cccc(-n2c(N3CCNCC3)c(C=O)c3ccccc32)c1 [Example 62, N-{3-[3-Formyl-2-(piperazin-1-yl)-indol-1-yl]phenyl}-acetamide Hydrochloride]
0.85 µM	O=Cc1cccc(-n2c(N3CCNCC3)c(C=O)c3ccccc32)c1 [Example 46]

Tested on: Male Sprague-Dawley rats
Experiment: Myocardial ischemia model: coronary artery occlusion and reperfusion, infarct size
Assay type: in vivo, rat
Settings: 10 mg/kg i.v. 5 min prior to reperfusion (Example 3); 20 min occlusion, 60 min reperfusion
Source text: Male Sprague-Dawley rats are anesthetized and the chest is opened. A thin silk thread is placed around the left anterior descending coronary artery. The silk is passed through a plastic tube and the chest is closed. After stable hemodynamics, the coronary artery is occluded by applying tension to the thread via the tube. Successful occlusion is confirmed by a decrease in systolic blood pressure and alterations in ECG. Reperfusion is initiated by releasing the tension on the ligature.
For testing efficacy of Example 3 in this animal model, animals are divided into three groups. One group received the compound of Example 3 at 10 mg/kg i.v. 10 min prior to occlusion. A second group received compound of Example 3 at the same dose 5 min prior to reperfusion. The third group served as vehicle control. The period of occlusion is 20 min, followed by reperfusion for 60 min. After sacrifice infarct size is measured by staining of heart tissue slices with triphenyltetrazolium chloride and expressed as a percent (%) of area at risk.
A similar study is carried out with cariporide, a reference standard.

SMILES	infarct size (% of area at risk), effect when given prior to reperfusion
CC(C)c1ccc(C(=O)NC(=N)N)cc1S(C)(=O)=O [cariporide, reference compound]	no effect

Same assay, conditions: 10 mg/kg i.v. 10 min prior to occlusion (Example 3); 20 min occlusion, 60 min reperfusion

SMILES	infarct size (% of area at risk), effect when given prior to ischemia
CC(C)c1ccc(C(=O)NC(=N)N)cc1S(C)(=O)=O [cariporide, reference compound]	significant protection
